The values below come from ChEMBL document CHEMBL2385043, “Recent advances in malaria drug discovery” (Bioorg Med Chem Lett, 2013).

Where only a bound is given, the exact number is not on record here.

One data set concerns Plasmodium. The experiment in a line: Antimalarial activity against Plasmodium infected in mouse. The data set is classed as functional.
In data set [1] the test system is Plasmodium falciparum. The experiment in a line: Antiplasmodial activity against Plasmodium falciparum. The data set is classed as functional, organism-based.
Data set [2] can be described thus: Toxicity in po dosed Sprague-Dawley rat. Particulars: in vivo. It counts as organism-based.
Data set [3] has as its system Plasmodium berghei. The experiment in a line: Antimalarial activity against Plasmodium berghei infected in Swiss albino mouse assessed as reduction in parasitemia after 4 days by microscopic analysis. It counts as functional. Particulars: 96 h.
Data set [4] has as its system Plasmodium berghei. Briefly: Antimalarial activity against Plasmodium berghei infected in Swiss albino mouse assessed as reduction in parasitemia after 4 days by microscopic analysis relative to artesunate. The data set is classed as functional.
The subject of data set [5] is Plasmodium falciparum. The experiment in a line: Antiplasmodial activity against drug-sensitive Plasmodium falciparum 3D7 after 24 hrs by [3H]-hypoxanthine incorporation assay. The data set is classed as functional, organism-based.
In data set [6] the test system is Plasmodium falciparum. The experiment in a line: Antiplasmodial activity against Plasmodium falciparum relative to artesunate. The data set is classed as functional.
The subject of data set [7] is Plasmodium falciparum. Briefly: Antiplasmodial activity against NITD609-resistant Plasmodium falciparum Dd2 infected in human erythrocytes after 48 hrs by [3H]-hypoxanthine incorporation assay. It counts as functional, organism-based.
A short description of data set [8]: Half life in human. It counts as ADME, organism-based. Particulars: in vivo.
The subject of data set [9] is Plasmodium falciparum. Briefly: Antimalarial activity against Plasmodium falciparum infected in po dosed mouse assessed as decrease in parasitemia administered on day 1 postinfection measured on day 3 by FACS analysis. The data set is classed as functional.
For data set [10], the system named is Plasmodium falciparum. The experiment in a line: Antiplasmodial activity against chloroquine-resistant Plasmodium falciparum K1 infected in human erythrocytes after 48 hrs by [3H]-hypoxanthine incorporation assay. It counts as functional, organism-based.
In data set [11] the test system is Plasmodium falciparum. The experiment in a line: Antimalarial activity against Plasmodium falciparum infected in SCID mouse. It counts as functional.
In data set [12] the test system is Plasmodium falciparum. The experiment in a line: Antiplasmodial activity against multidrug-resistant Plasmodium falciparum W2 infected in human erythrocytes after 24 hrs by [3H]-hypoxanthine incorporation assay.
In data set [13] the test system is Plasmodium berghei. The experiment in a line: Antimalarial activity against Plasmodium berghei infected in po dosed mouse. It counts as functional.
Data set [14] can be described thus: Oral bioavailability in rat. The data set is classed as ADME, organism-based. Particulars: in vivo.
The nature of data set [15]: Half life in po dosed rat. Particulars: in vivo.
In data set [16] the test system is Plasmodium falciparum. Briefly: Antiplasmodial activity against drug-sensitive Plasmodium falciparum 3D7. The data set is classed as functional, organism-based.
Data set [17] relates to Plasmodium falciparum. Briefly: Antiplasmodial activity against liver stage of drug-sensitive Plasmodium falciparum D10. It counts as functional, organism-based.
Another data set deals with Lysine--tRNA ligase (Homo sapiens, UniProt Q15046). The experiment in a line: Inhibition of human recombinant cytoplasmic lysyl-tRNA synthetase.
Data set [18] concerns Plasmodium falciparum. Briefly: Antiplasmodial activity against liver stage of drug-sensitive Plasmodium falciparum 3D7. The data set is classed as functional, organism-based. Particulars: 3D7, Liver.
The subject of data set [19] is Plasmodium falciparum. The experiment in a line: Antiplasmodial activity against chloroquine and antifolate-sensitive Plasmodium falciparum TM4 after 24 hrs by [3H]-hypoxanthine incorporation assay. It counts as functional, organism-based.
Data set [20] has as its system Plasmodium falciparum. Briefly: Antiplasmodial activity against sexual blood stage of Plasmodium falciparum. It counts as functional, organism-based.
The nature of data set [21]: Selectivity ratio of IC50 for human cytochrome b-c1 complex to IC50 for Plasmodium falciparum cytochrome b-c1 complex.
Data set [22] concerns Plasmodium falciparum. The experiment in a line: Antiplasmodial activity against asexual blood stage of Plasmodium falciparum. It counts as functional, organism-based.
A further data set deals with Plasmodium yoelii. The experiment in a line: Antiplasmodial activity against liver stage of Plasmodium yoelii. It counts as functional, organism-based.
The nature of data set [23]: Inhibition of Plasmodium falciparum cytochrome b-c1 complex.
Data set [24] has as its system Plasmodium falciparum. The experiment in a line: Antiplasmodial activity against multidrug-resistant Plasmodium falciparum W2 infected in human erythrocytes. It counts as functional, organism-based.
Data set [25] is described as follows: Terminal half life in human. The data set is classed as ADME, organism-based. Particulars: in vivo, read-out: beta t1/2 (converted).
The next data set relates to Plasmodium yoelii yoelii. Briefly: Antimalarial activity against Plasmodium yoelii yoelii infected in mouse. The data set is classed as functional.
The subject of data set [26] is Plasmodium falciparum. The experiment in a line: Antiplasmodial activity against Plasmodium falciparum by SYBR Green staining-based fluorescence assay. It counts as functional, organism-based.
A short description of data set [27]: Half life in Sprague-Dawley rat at 3 mg/kg, iv. It counts as ADME, organism-based. Details: dose 3 mg/kg, route intravenous. Particulars: in vivo.
Data set [28] relates to Plasmodium falciparum. The experiment in a line: Antimalarial activity against multidrug-resistant Plasmodium falciparum W2 infected in ip dosed mouse assessed as reduction in parasitemia administered on day 64 post-infection. The data set is classed as functional. Particulars: 1536 h.
In data set [29] the test system is Plasmodium falciparum. Briefly: Antiplasmodial activity against multidrug-resistant Plasmodium falciparum W2 infected in human erythrocytes after 72 hrs by ELISA. It counts as functional, organism-based. Particulars: W2, 72 h. In general terms: In an ELISA, binding on a coated surface is turned into a signal by an enzyme label.
Data set [30] concerns Plasmodium falciparum. Briefly: Antiplasmodial activity against Plasmodium falciparum VS/1 expressing DHFR quadruple mutation by [3H]-hypoxanthine incorporation assay. The data set is classed as functional, organism-based.
In data set [31] the test system is Plasmodium falciparum. Briefly: Antiplasmodial activity against wild type Plasmodium falciparum TM4 by [3H]-hypoxanthine incorporation assay. Particulars: TM4, 3 h.

As usually defined, the ED50 is the dose that gives a 50% effect, or the effect in half of the subjects. As usually defined, the EC50 is the concentration that produces a half-maximal response. A higher EC50 goes with lower potency in that assay. By bioavailability is commonly meant dose-corrected exposure relative to a reference, in per cent. Lower therefore signals poor availability. A word on the IC50: it is the concentration at which inhibition is half-maximal.

Sequence of Lysine--tRNA ligase (Q15046 whole entry): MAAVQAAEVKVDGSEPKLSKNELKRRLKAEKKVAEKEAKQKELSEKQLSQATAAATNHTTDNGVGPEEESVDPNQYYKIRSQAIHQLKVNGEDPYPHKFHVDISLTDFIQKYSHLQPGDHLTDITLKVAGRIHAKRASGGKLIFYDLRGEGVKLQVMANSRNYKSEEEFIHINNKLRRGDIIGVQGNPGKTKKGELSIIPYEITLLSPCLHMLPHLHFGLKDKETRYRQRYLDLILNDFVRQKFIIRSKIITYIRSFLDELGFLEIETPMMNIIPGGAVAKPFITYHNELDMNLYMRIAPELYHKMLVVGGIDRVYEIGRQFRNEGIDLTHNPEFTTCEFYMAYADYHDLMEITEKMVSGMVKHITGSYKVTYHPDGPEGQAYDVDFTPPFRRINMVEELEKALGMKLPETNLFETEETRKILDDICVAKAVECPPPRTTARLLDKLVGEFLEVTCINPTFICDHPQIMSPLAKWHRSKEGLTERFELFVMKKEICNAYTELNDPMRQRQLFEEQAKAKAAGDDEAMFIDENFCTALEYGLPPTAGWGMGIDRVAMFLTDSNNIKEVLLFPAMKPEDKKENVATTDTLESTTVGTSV

With `c1cc([C@H]2CC[C@]3(CC2)OO[C@]2(O3)C3CC4CC(C3)CC2C4)ccc1OCCN1CCOCC1` [ARTEFENOMEL], the 50% effect level in the data set on Plasmodium (ED50) was put at a dose of 20 mg/kg. In the data set on Plasmodium falciparum [1], this compound returned an EC50 of 0.0034 µM. In [2], this compound yielded an MTD of 300 mg/kg.

Take `C[C@H]1[C@H](N2CCS(=O)(=O)CC2)O[C@@H]2O[C@@]3(C)CC[C@H]4[C@H](C)CC[C@@H]1[C@@]24OO3` [ARTEMIFONE]: in the data set with Plasmodium berghei [3], the ED50 was 2 mg/kg/day. Further, the “fold change (FC)” value in the data set with Plasmodium berghei [4] is listed as 4; in the data set on Plasmodium falciparum [6], 10. Also, the EC50 in the data set on Plasmodium falciparum [5] stood at 0.00088 µM.

In turn, `C[C@@H]1CC[C@H]2[C@@H](C)C(=O)O[C@@H]3O[C@@]4(C)CC[C@@H]1[C@]32OO4` [ARTEMISININ] yielded an EC50 in the data set with Plasmodium falciparum [7] of 0.015 µM.

In [8], `C[C@H]1[C@@H](O)O[C@@H]2O[C@@]3(C)CC[C@H]4[C@H](C)CC[C@@H]1[C@@]24OO3` [ARTENIMOL] gave a half-life of 1 h.

With `C[C@H]1[C@H](OC(=O)CCC(=O)O)O[C@@H]2O[C@@]3(C)CC[C@H]4[C@H](C)CC[C@@H]1[C@@]24OO3` [ARTESUNATE], the 50% effective dose (ED50) in the data set on Plasmodium falciparum [9] came out at 6.2 mg/kg/day. In the data set on Plasmodium falciparum [10], this compound came in with an EC50 of 0.0031 µM. In data set [8], this compound showed a half-life of 1 h.

For `CCN(CC)CCCC(C)Nc1ccnc2cc(Cl)ccc12` (stereo not drawn) [CHLOROQUINE], in the data set with Plasmodium falciparum [11], the ED90 was 6.4 mg/kg/day. This compound also showed an EC50 with Plasmodium falciparum [12] of 0.049 µM. In the data set on Plasmodium berghei [13], this compound showed an ED50 of 1.9 mg/kg.

On to `C[C@H]1Cc2c([nH]c3cc(Cl)c(F)cc23)[C@@]2(N1)C(=O)Nc1ccc(Cl)cc12` [CIPARGAMIN], for which the bioavailability in [14] amounted to 100%. Further, in [15], the half-life is 27 h. The ED50 in the data set on Plasmodium berghei [13] turned out to be 1.2 mg/kg. This compound came in with a concentration giving a half-maximal response (EC50) in the data set on Plasmodium falciparum [16] of 0.0007 µM.

Turning to `C[C@H]1CCC[C@H](C[C@H]2Cc3cc(O)cc(O)c3C(=O)O2)O1` [CLADOSPORIN], the EC50 with Plasmodium falciparum [17] came to 0.09 µM; in the data set with Plasmodium falciparum [18] it was 0.045 µM. Further, the IC50 at Lysine--tRNA ligase is above 20 µM.

Turning to `CC1(C)N=C(N)N=C(N)N1c1ccc(Cl)cc1` [CYCLOGUANIL], in the data set on Plasmodium falciparum [19], the concentration giving a half-maximal response (EC50) came out at 0.038 µM.

With `CCCCCCCCCCOc1cc2c(O)c(C(=O)OCC)cnc2cc1OCC` [DECOQUINATE], the concentration giving a half-maximal response (EC50) in the data set with Plasmodium falciparum [20] was 0.036 µM; with Plasmodium falciparum [22], 0.01 µM; in the data set on Plasmodium yoelii, 0.0026 µM. Also, the Ratio IC50 in [21] is above 5000. In data set [23], this compound returned a half-inhibitory concentration (IC50) of 0.002 µM.

Consider `CCCCN(CCCC)CC(O)c1cc(Cl)cc2c1-c1ccc(Cl)cc1/C2=C/c1ccc(Cl)cc1` (stereo not drawn) [LUMEFANTRINE], for which the response with Plasmodium falciparum [24] was half-maximal at 0.00045 µM (EC50). The half-life in data set [25] was 72 h.

As for `C[C@@]12OC(=O)[C@]1([C@@H](O)[C@@H]1C=CCCC1)NC(=O)[C@@H]2CCCl` [MARIZOMIB], the median effective dose (ED50) in the data set on Plasmodium yoelii yoelii was determined as 0.25 mg/kg/day. This compound also yielded an EC50 in the data set with Plasmodium falciparum [26] of 0.011 µM.

Consider `CC(C)(N)CNC(=O)C[C@H]1CC[C@]2(CC1)OO[C@]1(O2)C2CC3CC(C2)CC1C3` [OZ277], for which the half-life in data set [27] is 1 h.

Take `Clc1ccc2c(N3CCN(CCCN4CCN(c5ccnc6cc(Cl)ccc56)CC4)CC3)ccnc2c1` [PIPERAQUINE]: the ED50 with Plasmodium falciparum [28] is 4.5 mg/kg. Moreover, the half-life in [8] is 192 h. In the data set on Plasmodium falciparum [29], this compound returned an EC50 of 0.0125 µM.

Regarding `CCc1nc(N)nc(N)c1-c1ccc(Cl)cc1` [PYRIMETHAMINE], the figures for the IC50 in the data set with Plasmodium falciparum [30] and with Plasmodium falciparum [31] were above 100 µM and 0.058 µM, respectively.
